Assay results as given in patent US9944602B2, “Piperidinone herbicides” (E. I. DU PONT DE NEMOURS AND COMPANY, priority 2014, dated 2018).

Legend:
Type in all cases: in vivo
[1] = test system: barnyardgrass (Echinochloa crus-galli); test: Test A preemergence barnyardgrass; details: 0 to 100 scale, 0 no effect, 100 complete control
How it was run: (§1)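 Both application timings used the same loam-and-sand medium and the same solvent–surfactant formulation. Postemergence plants were 2–10 cm at the one- to two-leaf stage. After roughly 10 d of greenhouse growth, injury was judged visually against untreated plants, where 0 is no effect and 100 complete control.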

[2] = test system: kochia (Kochia scoparia); test: Test A preemergence kochia; details: 0 to 100 scale, 0 no effect, 100 complete control
How it was run: as §1

[3] = test system: ragweed (common ragweed, Ambrosia elatior); test: Test A preemergence ragweed; details: 0 to 100 scale, 0 no effect, 100 complete control
How it was run: as §1

[4] = test system: ryegrass, Italian (Italian ryegrass, Lolium multiflorum); test: Test A preemergence ryegrass, Italian; details: 0 to 100 scale, 0 no effect, 100 complete control
How it was run: as §1

[5] = test system: foxtail, giant (giant foxtail, Setaria faberii); test: Test A preemergence foxtail, giant; details: 0 to 100 scale, 0 no effect, 100 complete control
How it was run: as §1

[6] = test system: pigweed (Amaranthus retroflexus); test: Test A preemergence pigweed; details: 0 to 100 scale, 0 no effect, 100 complete control
How it was run: as §1

[7] = test system: barnyardgrass (Echinochloa crus-galli); test: Test A postemergence barnyardgrass; details: 0 to 100 scale, 0 is no effect, 100 is complete control
How it was run: as §1

[8] = test system: kochia (Kochia scoparia); test: Test A postemergence kochia; details: 0 to 100 scale, 0 is no effect, 100 is complete control
How it was run: as §1

[9] = test system: ragweed (common ragweed, Ambrosia elatior); test: Test A postemergence ragweed; details: 0 to 100 scale, 0 is no effect, 100 is complete control
How it was run: as §1

[10] = test system: ryegrass, Italian (Italian ryegrass, Lolium multiflorum); test: Test A postemergence ryegrass, Italian; details: 0 to 100 scale, 0 is no effect, 100 is complete control
How it was run: as §1

[11] = test system: foxtail, giant (giant foxtail, Setaria faberii); test: Test A postemergence foxtail, giant; details: 0 to 100 scale, 0 is no effect, 100 is complete control
How it was run: as §1

[12] = test system: pigweed (Amaranthus retroflexus); test: Test A postemergence pigweed; details: 0 to 100 scale, 0 is no effect, 100 is complete control
How it was run: as §1

[13] = test system: wheat (Triticum aestivum); test: Test A postemergence wheat; details: 0 to 100 scale, 0 is no effect, 100 is complete control
How it was run: as §1

[14] = test system: corn (Zea mays); test: Test A postemergence corn; details: 0 to 100 scale, 0 is no effect, 100 is complete control
How it was run: as §1

[15] = test system: blackgrass (Alopecurus myosuroides); test: Test A postemergence blackgrass; details: 0 to 100 scale, 0 is no effect, 100 is complete control
How it was run: as §1

[16] = test system: galium (catchweed bedstraw, Galium aparine); test: Test A postemergence galium; details: 0 to 100 scale, 0 is no effect, 100 is complete control
How it was run: as §1

[17] = test system: rice (Oryza sativa); test: Test B flooded paddy test rice; details: Table B, Flood, 250 g ai/ha, scale 0 to 100
How it was run: (§2)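 Plants at 2-leaf stage in pots flooded 3 cm above soil; compounds applied directly into paddy water, depth kept throughout.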

[18] = test system: sedge, umbrella (small-flower umbrella sedge, Cyperus difformis); test: Test B flooded paddy test sedge, umbrella; details: Table B, Flood, 250 g ai/ha, scale 0 to 100
How it was run: as §2

[19] = test system: ducksalad (Heteranthera limosa); test: Test B flooded paddy test ducksalad; details: Table B, Flood, 250 g ai/ha, scale 0 to 100
How it was run: as §2

[20] = test system: barnyardgrass (Echinochloa crus-galli); test: Test B flooded paddy test barnyardgrass; details: Table B, Flood, 250 g ai/ha, scale 0 to 100
How it was run: as §2

Structure (SMILES): O=C(Nc1ccccc1C(F)(F)F)C1C(=O)N(C2CC2)CCC1c1ccc(F)cc1 (stereo not drawn) [Compound 50]
- Barnyardgrass plant response rating ([1]; 125 g ai/ha): 0
- Barnyardgrass plant response rating ([1]; 500 g ai/ha): 0
- Kochia plant response rating ([2]; 125 g ai/ha): 0
- Kochia plant response rating ([2]; 500 g ai/ha): 0
- Ragweed plant response rating ([3]; 125 g ai/ha): 0
- Ragweed plant response rating ([3]; 500 g ai/ha): 0
- Ryegrass, Italian plant response rating ([4]; 125 g ai/ha): 0
- Ryegrass, Italian plant response rating ([4]; 500 g ai/ha): 0
- Foxtail, Giant plant response rating ([5]; 125 g ai/ha): 0
- Foxtail, Giant plant response rating ([5]; 500 g ai/ha): 40
- Pigweed plant response rating ([6]; 125 g ai/ha): 0
- Pigweed plant response rating ([6]; 500 g ai/ha): 0
- Plant response rating, Barnyardgrass ([7]; 125 g ai/ha): 0
- Plant response rating, Barnyardgrass ([7]; 500 g ai/ha): 0
- Plant response rating, Kochia ([8]; 125 g ai/ha): 0
- Plant response rating, Kochia ([8]; 500 g ai/ha): 0
- Plant response rating, Ragweed ([9]; 125 g ai/ha): 0
- Plant response rating, Ragweed ([9]; 500 g ai/ha): 0
- Plant response rating, Ryegrass, Italian ([10]; 125 g ai/ha): 0
- Plant response rating, Ryegrass, Italian ([10]; 500 g ai/ha): 0
- Plant response rating, Foxtail, Giant ([11]; 125 g ai/ha): 0
- Plant response rating, Foxtail, Giant ([11]; 500 g ai/ha): 0
- Plant response rating, Pigweed ([12]; 125 g ai/ha): 0
- Plant response rating, Pigweed ([12]; 500 g ai/ha): 0
- Plant response rating, Wheat ([13]; 125 g ai/ha): 0
- Plant response rating, Wheat ([13]; 500 g ai/ha): 0
- Plant response rating, Corn ([14]; 125 g ai/ha): 0
- Plant response rating, Corn ([14]; 500 g ai/ha): 0
- Plant response rating, Blackgrass ([15]; 125 g ai/ha): 0
- Plant response rating, Blackgrass ([15]; 500 g ai/ha): 0
- Plant response rating, Galium ([16]; 125 g ai/ha): 0
- Plant response rating, Galium ([16]; 500 g ai/ha): 0
- Plant response rating [17]: 0
- Plant response rating [18]: 0
- Plant response rating [19]: 0
- Plant response rating [20]: 0

Structure (SMILES): O=C(Nc1ccccc1C(F)(F)F)C1C(=O)N(Cc2ccccc2)CCC1c1ccc(F)cc1 (stereo not drawn) [Compound 51]
- Barnyardgrass plant response rating ([1]; 125 g ai/ha): 0
- Barnyardgrass plant response rating ([1]; 500 g ai/ha): 0
- Kochia plant response rating ([2]; 125 g ai/ha): 0
- Kochia plant response rating ([2]; 500 g ai/ha): 0
- Ragweed plant response rating ([3]; 125 g ai/ha): 0
- Ragweed plant response rating ([3]; 500 g ai/ha): 0
- Ryegrass, Italian plant response rating ([4]; 125 g ai/ha): 0
- Ryegrass, Italian plant response rating ([4]; 500 g ai/ha): 0
- Foxtail, Giant plant response rating ([5]; 125 g ai/ha): 0
- Foxtail, Giant plant response rating ([5]; 500 g ai/ha): 0
- Pigweed plant response rating ([6]; 125 g ai/ha): 0
- Pigweed plant response rating ([6]; 500 g ai/ha): 0
- Plant response rating, Barnyardgrass ([7]; 125 g ai/ha): 0
- Plant response rating, Barnyardgrass ([7]; 500 g ai/ha): 0
- Plant response rating, Kochia ([8]; 125 g ai/ha): 0
- Plant response rating, Kochia ([8]; 500 g ai/ha): 0
- Plant response rating, Ragweed ([9]; 125 g ai/ha): 0
- Plant response rating, Ragweed ([9]; 500 g ai/ha): 0
- Plant response rating, Ryegrass, Italian ([10]; 125 g ai/ha): 0
- Plant response rating, Ryegrass, Italian ([10]; 500 g ai/ha): 0
- Plant response rating, Foxtail, Giant ([11]; 125 g ai/ha): 0
- Plant response rating, Foxtail, Giant ([11]; 500 g ai/ha): 0
- Plant response rating, Pigweed ([12]; 125 g ai/ha): 0
- Plant response rating, Pigweed ([12]; 500 g ai/ha): 0
- Plant response rating, Wheat ([13]; 125 g ai/ha): 0
- Plant response rating, Wheat ([13]; 500 g ai/ha): 0
- Plant response rating, Corn ([14]; 125 g ai/ha): 0
- Plant response rating, Corn ([14]; 500 g ai/ha): 0
- Plant response rating, Blackgrass ([15]; 125 g ai/ha): 0
- Plant response rating, Blackgrass ([15]; 500 g ai/ha): 0
- Plant response rating, Galium ([16]; 125 g ai/ha): 0
- Plant response rating, Galium ([16]; 500 g ai/ha): 0
- Plant response rating [17]: 0
- Plant response rating [18]: 0
- Plant response rating [19]: 0
- Plant response rating [20]: 0

Structure (SMILES): O=C1NCC[C@@H](c2ccc(C(F)(F)F)cc2)[C@@H]1C(=O)Nc1ccc(F)c(F)c1F [Compound 55]
- Barnyardgrass plant response rating ([1]; 125 g ai/ha): 0
- Barnyardgrass plant response rating ([1]; 500 g ai/ha): 0
- Kochia plant response rating ([2]; 125 g ai/ha): 0
- Kochia plant response rating ([2]; 500 g ai/ha): 0
- Ragweed plant response rating ([3]; 125 g ai/ha): 0
- Ragweed plant response rating ([3]; 500 g ai/ha): 0
- Ryegrass, Italian plant response rating ([4]; 125 g ai/ha): 0
- Ryegrass, Italian plant response rating ([4]; 500 g ai/ha): 0
- Foxtail, Giant plant response rating ([5]; 125 g ai/ha): 0
- Foxtail, Giant plant response rating ([5]; 500 g ai/ha): 0
- Pigweed plant response rating ([6]; 125 g ai/ha): 0
- Pigweed plant response rating ([6]; 500 g ai/ha): 0
- Plant response rating, Barnyardgrass ([7]; 125 g ai/ha): 0
- Plant response rating, Barnyardgrass ([7]; 500 g ai/ha): 0
- Plant response rating, Kochia ([8]; 125 g ai/ha): 0
- Plant response rating, Kochia ([8]; 500 g ai/ha): 0
- Plant response rating, Ragweed ([9]; 125 g ai/ha): 0
- Plant response rating, Ragweed ([9]; 500 g ai/ha): 0
- Plant response rating, Ryegrass, Italian ([10]; 125 g ai/ha): 0
- Plant response rating, Ryegrass, Italian ([10]; 500 g ai/ha): 0
- Plant response rating, Foxtail, Giant ([11]; 125 g ai/ha): 0
- Plant response rating, Foxtail, Giant ([11]; 500 g ai/ha): 0
- Plant response rating, Pigweed ([12]; 125 g ai/ha): 0
- Plant response rating, Pigweed ([12]; 500 g ai/ha): 0
- Plant response rating, Wheat ([13]; 125 g ai/ha): 0
- Plant response rating, Wheat ([13]; 500 g ai/ha): 0
- Plant response rating, Corn ([14]; 125 g ai/ha): 0
- Plant response rating, Corn ([14]; 500 g ai/ha): 0
- Plant response rating, Blackgrass ([15]; 125 g ai/ha): 0
- Plant response rating, Blackgrass ([15]; 500 g ai/ha): 0
- Plant response rating, Galium ([16]; 125 g ai/ha): 0
- Plant response rating, Galium ([16]; 500 g ai/ha): 0
- Plant response rating [17]: 0
- Plant response rating [18]: 0
- Plant response rating [19]: 0
- Plant response rating [20]: 0
